Data: patent publication US11815448B2, “Method, reagent, and chip for measuring analyte concentration in specimen” (TERUMO KABUSHIKI KAISHA, priority 2018, dated 2023)
Where a name gives a salt, the structure may show the parent alone.

Assay: Evaluation of maximum absorption wavelength (λmax)
Type: physicochemical
Protocol: A 10 mM MOPS aqueous solution is added so that the final concentrations of the respective formazan compounds are 50 to […] to prepare 100 μL of each sample. Separately, a 1M nickel ion aqueous solution is prepared. To 100 μL of the sample, 10 μL of the 1M nickel ion aqueous solution is added, and the mixture is rapidly stirred to prepare a mixed solution. The spectrum of the mixed solution is measured with a spectrophotometer (measurement cell length: 10 mm) (n=1). Based on each spectrum, the maximum absorption wavelength (λmax) (nm) of each compound in formazan is determined.
Diethyl ether was added to the reaction solution obtained in 3. above to precipitate the tetrazolium compound 1. The precipitate was centrifuged, and the supernatant was removed, followed by washing with diethyl ether. The obtained precipitate was dried in a draft to obtain tetrazolium compound 1 (120 mg, yield: 11.8% by mass). The maximum absorption wavelength (λmax) of the tetrazolium compound 1 thus obtained was measured and found to be 630 nm.

SMILES: COc1ccc2nc(-n3nc(-c4ccc(S(=O)(=O)O)cc4S(=O)(=O)[O-])n[n+]3-c3ccc(OC)c(S(=O)(=O)O)c3)sc2c1 [tetrazolium compound 1, 2-(6-methoxybenzothiazolyl)-3-(3-sulfo-4-methoxy-phenyl)-5-(2,4-disulfophenyl)-2H-tetrazolium salt]
- maximum absorption wavelength (λmax): 630 nm
